What was measured:
CepR = biological target: T1, CepR (Burkholderia cenocepacia, UniProt B4EMD0); test: ITC with purified protein (one-site model); EMSA shows inhibited binding to bclACB promoter
T1 construct: HIS-CepR fusion protein (pDBHT2), cleaved with TEV protease

RqpR = biological target: T2, RqpR; test: ITC with purified protein (one-site model); EMSA shows inhibited binding to rpfFBC and cepI promoters; parameters: species or system Burkholderia cenocepacia
T2 construct: HIS-RqpR fusion protein (pDBHT2), cleaved with TEV protease

T1 sequence (B4EMD0 entry or part of it): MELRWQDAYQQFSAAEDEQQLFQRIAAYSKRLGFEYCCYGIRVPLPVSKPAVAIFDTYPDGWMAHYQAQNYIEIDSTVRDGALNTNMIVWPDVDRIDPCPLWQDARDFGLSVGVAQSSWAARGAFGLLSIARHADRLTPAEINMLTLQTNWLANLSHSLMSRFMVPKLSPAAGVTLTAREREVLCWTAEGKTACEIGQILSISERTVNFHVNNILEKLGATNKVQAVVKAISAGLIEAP

C=C1C(=O)[C@]23[C@H](O)[C@H]1CC[C@H]2[C@@]12CO[C@]3(O)[C@@H](O)[C@@H]1C(C)(C)CC[C@@H]2O [oridonin]
Kd (CepR): 13.6 ± 0.826 µM | Kd (RqpR): 8.28 ± 0.895 µM
